Source: US7153858B2, “Arylpiperazinyl compounds” (Epix Delaware, Inc., priority 2003, dated 2006)
Entries after “also recorded” stand apart in the source; their conditions may differ. Structures can show the parent of a compound that is named as a salt.

How the values were obtained:
Type in all cases: in vivo
[1] = test system: C57B16/J mice; assay: Elevated Plus Maze (EPM); settings: for Closed Arm Entries / Total Entries / Open Arm Time / Proportion Open Arm Entries: vs vehicle
From the text: (§1) Young adult male C57B16/J mice from Jackson Laboratory, Bar Harbor, Me. were used in the Elevated Plus Maze; 129 svev mice from Taconic, Germantown, N.Y. were used in the Stress-induced Hyperthermia, Open Field, and the Tail Suspension tests, and DBA/2J mice from Jackson Laboratory, Bar Harbor, Me. were used in the Forced Swim test. All mice were received at the age of 6 weeks and were assigned unique identification numbers. Animals were housed 4 per cage in polycarbonate cages with filter tops, cagemate identification maintained by tail marks. Animals were acclimated for 7 days and given food and water ad libitum. Mice were examined prior to initiation of the study at 8 weeks of age to assure adequate health and suitability. During the course of the study, 12-hour light/12-hour dark cycles were maintained with the light on at 7:00 a.m. The room temperature was maintained between 20 and 23° C. with a relative humidity maintained between 30% and 70%. Chow and water were provided ad libitum.
(§2) In each test, animals were randomly assigned across treatment groups and balanced by cage number. Ten animals were used in each treatment group. Mice for the Open Field and Stress-induced hyperthermia studies were handled once daily for 2 consecutive days prior to the testing. Mice assigned to the Elevated plus maze experiment were not handled to increase the stress level at the time of the testing.
(§3) All compounds were dissolved in sterile injectable water, which served as the vehicle control. All solutions were prepared on the day of the experiments. […] In all tests except for the tail suspension (TS) test, drugs were administered acutely; in the TS test, Compound A was administered once daily for 3 days (test day inclusive) prior to testing. Thirty minutes pretreatment time was used in all tests except for SIH in which case compounds were given to the animals one hr before the test.
The elevated plus maze is a test commonly used to assess anxiety in rodents. The maze consists of two closed arms (l×w×h: 15 cm×6 cm×30 cm) and two open arms (6 cm w×30 cm l) forming a cross, with a square center platform (6×6 cm). Rodents naturally fear open spaces and tend to spend more time in the closed arms. Anxiolytics will attenuate this fear of open spaces and will increase the number of time spent in open arms. All visible surfaces are made of a black acrylic. Each arm of the maze is placed on a support column 50 cm above the floor. The light intensity was ˜100 lux above the open arms and ˜70 lux above the closed arms. Animals were brought to the experimental room at least 1 hr before the test in the home cage (food and water available). Mice were placed in the center of the elevated plus maze facing an open arm, tested once, one at a time for a 5 min test. The time in the open/closed arms and the number of entries in the open/closed arms were recorded via video camera and used as a measure of anxiety. Mice were returned to the home cage after testing and then to the colony room.
(§4) All data were analyzed by comparing the groups treated with the test substance to the vehicle control or reference treated groups. Statistical analysis was performed by ANOVA followed by Fisher's post-hoc test where appropriate. […] Data are represented as the means and standard error to the mean (s.e.m).

[2] = test system: Coloboma mice; assay: Open Field, hyperlocomotor activity of Coloboma mutant mice (ADHD model); settings: vs vehicle
From the text: The mice used in the current study are the offspring of breeding pairs (C3H/HeSnj-Cm) originally purchased from Jackson Laboratory, Bar Harbor, Me. Of the 48 mice tested, 22 were male and 26 were female, at age between 12–20 weeks old. These animals were weaned at 21 days age and were housed in 2 to 4 littermates per cage in our animal facility where standard animal husbandry was maintained. The colony room was kept under 12-hour light/12-hour dark cycles with the lights on at 7:00 a.m. Temperature was maintained between 20 and 23° C. with a relative humidity maintained between 30% and 70%. Animals received food chow and water provided ad libitum.
All compounds were dissolved in sterile injectable water, which served as the vehicle control. All solutions were prepared on the day of the experiments. Compound A as well as its vehicle (water) was given to animals orally (PO) in a volume of 10 ml/kg body weight; the reference compound was given to animals intraperitoneally (IP). […]
The study was conducted over two consecutive days with animals tested between 10:00 a.m. and 5:00 p.m. on each day. […] The results were recorded automatically and processed by microcomputer.
The open field activity monitor system (Med Associates, Inc.) measured general motor activity. […]
All data were analyzed by comparing the groups treated with the test substance to the vehicle control or reference treated groups. […]

[3] = test system: 129 svev mice; assay: Stress-Induced Hyperthermia (SIH); settings: 1 hr before test
From the text: as §1, §2, §3
Mice have a natural hyperthermic response to stress, which has been proposed as a measure of stress-induced anxiety (Olivier, Zethof, Ronken & van der Heyden, European Journal of Pharmacology 342(2–3): 177–82, 1998). Anxiolytics are known to decrease this hyperthermic response to stress. This test involves two measures of rectal temperature repeated in the same animal within a 10 min period. On the day prior to testing, animals were brought to the experimental room 1 hr prior to scheduled lights out and singly housed overnight with food and water ad libitum. On the morning of the experiment, animals were first injected with treatment compound or vehicle. One hr post treatment, the animal was removed from the holding cage and held in a supine position and had rectal temperature measured by using a rectal probe attached to a PhysiTemp thermometer (Fisher Scientific). For each animal tested, the rectal probe was cleaned with an alcohol pad and lubricated with sterile K-Y jelly and slowly inserted into the animal's rectum at a length of approximately 3–5 mm. The probe remained within the animal's rectum for approximately 5 sec or until body temperature reached stability, and the baseline rectal temperature (T1) was recorded. The animal was immediately placed back to the holding cage and after a 10-min interval a second rectal temperature (T2) was taken using the same procedure as T1. The animal was then returned to the home cage and at the completion of the experiment returned to the colony room.
as §4

[4] = test system: 129 svev mice (tail suspension), DBA/2J mice (forced swim); assay: Tail suspension and forced swim test; settings: PO; tail suspension: once daily for 3 days
From the text: as §1
as §3, with “Thirty minutes pretreatment time was used in all tests except for SIH in which case compounds were given to the animals one hr before the test.” left out

[5] = test system: 129 svev mice; assay: Open Field (OF), general motor activity; settings: 40 min session
From the text: as §1, §2, §3
The open field activity monitor system (Med Associates, Inc.) measured general motor activity. The test was performed under normal lighting conditions (400 lux). Mice were brought into the experimental room and allowed at least 1 hr of acclimation. Thirty min after treatment, each mouse was placed into the testing enclosure (l×w×h: 27 cm×27 cm×20 cm) with an infrared beam array that automatically monitors the animal's activity. Eight animals of balanced treatment were tested at one time. The test session lasted 40 min and animals were returned to the home cages at the end of the session. The critical measures of this test includes locomotion (total distance traveled), rearing (vertical activity), number of center entries and percent time spent in the center area of the OF arena.
as §4

[6] = reference buspirone 3, 10 and 20 mg/kg PO
[7] = reference buspirone 20 mg/kg IP
[8] = reference buspirone 20 mg/kg IP, listed as buspirone

## CC(=O)Nc1cccc(N2CCN(CCCCNS(=O)(=O)CC3CCCCC3)CC2)c1 [Compound A, N-{3-[4-(4-Cyclohexylmethanesulfonylamino-butyl)-piperazin-1-yl]-phenyl}-acetamide HCl]
[1]; 3 mg/kg PO
  Closed Arm Entries: no change
  Total Entries: no change
[1]; 3 mg/kg PO, HCl
  Open Arm Time: significant anxiolytic-like effect; also recorded: increase
  Proportion Open Arm Entries: significant anxiolytic-like effect; also recorded: increase
[1]; 10 mg/kg PO
  Closed Arm Entries: no change
  Total Entries: no change
[1]; 10 mg/kg PO, HCl
  Open Arm Time: did not reach statistical significance; also recorded: no change
  Proportion Open Arm Entries: did not reach statistical significance; also recorded: no change
[1]; 20 mg/kg PO
  Closed Arm Entries: no change
  Total Entries: no change
[1]; 20 mg/kg PO, HCl
  Open Arm Time: did not reach statistical significance; also recorded: no change
  Proportion Open Arm Entries: did not reach statistical significance; also recorded: no change
[2]; doses of 1 and 20 mg/kg PO, 30 min pretreatment
  hyperlocomotor activity (Distance Traveled): decreased the hyperlocomotor activity
[3]; 1 mg/kg PO, HCl
  Basal Rectal Temperature: did not show significant effects; also recorded: no change
  Temperature Change (stress-induced hyperthermia): did not show significant effects; also recorded: no change
[3]; 3 mg/kg PO, HCl
  Basal Rectal Temperature: did not show significant effects; also recorded: no change
  Temperature Change (stress-induced hyperthermia): did not show significant effects; also recorded: no change
[3]; 20 mg/kg PO, HCl
  Basal Rectal Temperature: significant decrease
  Temperature Change (stress-induced hyperthermia): significant decrease
[4]
  antidepressive properties: did not appear to have antidepressive properties
[5]; 1 mg/kg PO
  Frequency of Zone Crosses: No change
  Percent Distance in Center: No change
  Percent Time in Center: No change
  Total Distance (Horizontal): No change
  Vertical Activity (Rearing): No change
[5]; 3 mg/kg PO
  Frequency of Zone Crosses: no change
  Percent Distance in Center: no change
  Percent Time in Center: no change
  Total Distance (Horizontal): no change
  Vertical Activity (Rearing): no change
[5]; 20 mg/kg PO
  Frequency of Zone Crosses: no change
  Percent Distance in Center: no change
  Percent Time in Center: no change
  Total Distance (Horizontal): no change
  Vertical Activity (Rearing): no change

## O=C1CC2(CCCC2)CC(=O)N1CCCCN1CCN(c2ncccn2)CC1 [Buspirone, reference compound]
[1]; 20 mg/kg PO
  Closed Arm Entries: significantly decreased
  Total Entries: significant decrease
[1]; 20 mg/kg PO, listed as BUS
  Closed Arm Entries: decrease (BUS, 20)
  Total Entries: decrease (BUS, 20)
[1]; [6]
  anxiolytic-like effect in the EPM: failed to produce a significant anxiolytic-like effect
  Open Arm Time: no effect
[3]; [7]
  Basal Rectal Temperature: decrease
  Temperature Change (stress-induced hyperthermia): decrease
[3]; [8]
  Basal Rectal Temperature: significantly decreased
  Temperature Change (stress-induced hyperthermia): significantly decreased
[5]; reference buspirone PO
  Frequency of Zone Crosses: no change
  Percent Distance in Center: no change
  Percent Time in Center: no change
  Total Distance (Horizontal): no change
  Vertical Activity (Rearing): decreased the number of rears; also recorded: decrease

## C[C@H](N)Cc1ccccc1 [d-Amphetamine, reference compound]
[2]; 4 mg/kg IP, 15 min before the test
  locomotor activity (Distance Traveled): significantly decreased
